How the values were obtained:
narkotisierten Katze = assay: Blood pressure lowering and positive inotropic effect in the anaesthetised cat; assay type: in vivo; conditions: 0,1 mg/kg i.v., mean of 3 cats; for Wirkungsdauer (Halbwerts-zeit): anaesthetised cats; for Blutdruck änderung in mmHg: second value of the printed pair (presumably diastolic), pentobarbital-anaesthetised cats
Method: 2. Bestimmung der blutdrucksenkenden und positiv inotropen Wirkung an der narkotisierten Katze:
Die Untersuchungen wurden an Katzen durchgeführt, die mit Pentobarbital-Natrium (40 mg/kg i.p.) narkotisiert waren. Die Tiere atmeten spontan. Der arterielle Blutdruck wurde in der Aorta abdominalis mit einem Statham-Druckwandler (P 23 Dc) gemessen. Für die Erfassung der positiv inotropen Wirkung wurde mit einem Kathetertipmanometer (Milliar PC-350 A) der Druck in der linken Herzkammer gemessen. Daraus wurde der Kontraktilitätsparameter dp/dtmax mittels eines Analogdifferenzierers gewonnen. Die zu untersuchende Substanz wurden in eine Vena femoralis injiziert Als Lösungsmittel diente Polydiol 200. Die Substanz wurde an 3 Katzen geprüft, Dosis 0,1 i.v..

Thrombozytenaggregation = assay: Platelet aggregation according to Born and Cross (collagen-induced, photometric); assay type: cell-based, gesunder Versuchspersonen; conditions: collagen-induced aggregation in platelet-rich plasma of healthy subjects
Method: 1. Bestimmung der Thrombozytenaggregation nach Bom und Cross (J. Physiol. 170, 397 (1964)):
Die Thrombozytenaggregation wurde in plättchenreichem Plasma gesunder Versuchspersonen gemessen. Hierbei wurde der Verlauf der Abnahme der optischen Dichte nach Zugabe von handelsüblichem Collagen der Firma Sigma, St. Louis/USA, welches 1 mg Collagen-Fibrillen pro ml enthält, photometrisch gemessen und registriert. Aus dem Neigungswinkel der Dichtekurve wurde auf die Aggregationsgeschwindigkeit (Vmax) geschlossen. Der Punkt der Kurve, bei dem die größte Lichtdurchlässigkeit vorlag, diente zur Berechnung der "optical density" (O.D.). Zur maximalen Aggregationsauslösung werden ca. 0,01 ml der Collagenlösung zu 1 ml plättchenreichem Plasma gegeben.

Compound | Wirkungsdauer (Halbwerts-zeit) (narkotisierten Katze) | Blutdruck änderung in mmHg (narkotisierten Katze) | EC50 (Thrombozytenaggregation)
CC1CC(=O)NN=C1c1ccc2[nH]c(N3CCCC3)nc2c1 (stereo not shown) [D] | 13 Minuten | -17 mmHg | –
CC1CC(=O)NN=C1c1ccc2nc(N3CCNCC3)oc2c1 (stereo not shown) [B, 5-Methyl-6-[2-(1-piperazinyl)-benzoxazol-6-yl]-4,5-dihydro-3(2H)-pyridazinon] | 12 Minuten | -43 mmHg | –
CC1CC(=O)NN=C1c1ccc2nc(-n3ccnc3)[nH]c2c1 (stereo not shown) [F, 5-Methyl-6-[2-(1-imidazolyl)-benzimidazol-5-yl]-4,5-dihydro-3(2H)-pyridazinon] | 8 Minuten | -20 mmHg | –
CCOC(=O)N1CCN(c2nc3ccc(C4=NNC(=O)CC4C)cc3o2)CC1 (stereo not shown) [C, 5-Methyl-6-[2-(4-carbäthoxy-1-piperazinyl)-benzoxazol-6-yl]-4,5-dihydro-3(2H)-pyridazinon] | 12 Minuten | -50 mmHg | –
CC1CC(=O)NN=C1c1ccc2[nH]c(N3CCSCC3)nc2c1 (stereo not shown) [E, 5-Methyl-6-[2-(4-thiomorpholino)-benzimidazol-5-yl]-4,5-dihydro-3(2H)-pyridazinon] | 10 Minuten | -12 mmHg | –
CC1CC(=O)NN=C1c1ccc2oc(-n3ccnc3)nc2c1 (stereo not shown) [A, 5-Methyl-6-[2-(1-imidazolyl)-benzoxazol-5-yl]-4,5-dihydro-3(2H)-pyridazinon] | 25 Minuten | -45 mmHg | 31 nM

From patent EP0196005A1, “Pyridazinones, their preparation and pharmaceutical compositions containing them” (Dr. Karl Thomae GmbH, priority 1985, dated 1986)
